Experimental findings from US6921821B2, “Antagonists of melanin concentrating hormone receptor” (Abbott Laboratories, priority 2002, dated 2005) are described below.

SMILES strings stand for the structures. Structures can show the parent of a compound that is named as a salt.

For this test, the target named is T1, murine MCHR (Mus musculus, UniProt Q8JZL2).
T1 construct: expressed in transfected cells; host or cells: HEK293
T1 sequence (Q8JZL2 whole entry): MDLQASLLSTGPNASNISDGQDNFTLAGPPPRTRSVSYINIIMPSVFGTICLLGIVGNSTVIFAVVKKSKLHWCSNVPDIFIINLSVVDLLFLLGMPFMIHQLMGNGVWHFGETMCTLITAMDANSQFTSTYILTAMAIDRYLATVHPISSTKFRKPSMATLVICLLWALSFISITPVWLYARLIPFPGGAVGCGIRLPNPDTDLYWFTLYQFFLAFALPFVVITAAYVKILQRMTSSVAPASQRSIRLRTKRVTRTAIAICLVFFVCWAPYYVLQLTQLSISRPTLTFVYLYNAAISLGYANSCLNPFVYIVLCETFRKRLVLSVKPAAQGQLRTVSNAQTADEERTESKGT
Description: Assay for release of intracellular calcium (FLIPR, Fluo-4), inhibition of MCH-induced Ca++ flux. The test is classed as cell-based. The conditions noted are these: test compound at a dose of 10 μM, HEK293 cells expressing the murine MCHR, read-out: inhibition of MCH (MCH induced Ca++ flux / fluorescence). Here is the method:
Assay for Release of Intracellular Calcium
Activation of the melanin concentrating hormone receptor (MCHR) by MCH induces the release of Ca^++ from intracellular stores. This intracellular calcium release is measured using a fluorometric imaging plate reader (FLIPR™, Molecular Devices Corp.) in conjunction with the Ca^++-sensitive dye Fluo-4. Release of Ca^++ from intracellular stores causes an increase in fluorescence of the dye that is proportional to Ca^++ concentration. Briefly, the assays are performed as follows. HEK293 cells expressing the murine MCHR are plated overnight at 50,000 cells/well in 96-well plates. The following day, culture medium is removed and replaced with 100 μl/well of D-PBS (+glucose and sodium pyruvate) containing 2.5 μM Fluo-4AM (Molecular Probes), 0.01% Pluronic F-127 and 2.5 mM probenecid. Cells are loaded with the Fluo-4 dye for at least one hour at room temp. After loading, the cells are washed gently to remove extracellular dye and 100 μl of D-PBS (+glucose and sodium pyruvate) is added to each well. Test compounds are prepared at 40 μM in 4% DMSO. The cell plate is placed in the FLIPR™ and 50 μl/well of test compound is delivered. The calcium signal is followed for 3 minutes to assay for potential agonist activity by the test compounds. Then 50 μl/well of 12 nM mouse MCH (in D-PBS containing 0.1% BSA) is added and the ligand-induced calcium signal is followed for an additional 3 minutes. Antagonist activity as determined by the test compounds ability to inhibit MCH induced Ca^++ flux is calculated as % inhibition as described by the following formula: % inhibition=[1−((fTC−fB)÷(fMCH−fB))]×100, where fTC=MCH-induced fluorescence in the presence of test compound; fMCH=MCH-induced fluorescence in the absence of test compound; and fB=Baseline fluorescence.
MCH (3 nM) usually elicits a response of 30,000-40,000 relative fluorescence units (RFU) with a baseline of about 1000 RFU. Fluo-4 fluorescence is measured at 488 nm, with an exposure of 0.40 sec. and F-stop=2.0 and the laser set at 0.40-0.60 W constant light output.
In the case of `CON(C)C(=O)c1c(NC2CCN(Cc3ccc4c(c3)OCO4)CC2)c2cc(Cl)ccc2n(C)c1=O` [Compound V-52, 4-(1-Benzo[1,3]dioxol-5-ylmethyl-piperidin-4-ylamino)-6-chloro-1-methyl-2-oxo-1,2-dihydro-quinoline-3-carboxylic acid methoxy-methyl-amide], the inhibition at 10 µM was not below 50%.
In the case of `N#Cc1c(NC2CCN(Cc3ccc4ccccc4c3)CC2)c2cc(Cl)ccc2[nH]c1=O` [Compound V-53, 6-Chloro-4-(1-naphthalen-2-ylmethyl-piperidin-4-ylamino)-2-oxo-1,2-dihydro-quinoline-3-carbonitrile], the inhibition at 10 µM is not below 50%.
As for `COc1ccc(CN2CCC(Nc3c(C(=O)N(C)C)c(=O)n(C)c4ccc(Cl)cc34)CC2)cc1F` [Compound V-54, 6-Chloro-4-[1-(3-fluoro-4-methoxy-benzyl)-piperidin-4-ylamino]-1-methyl-2-oxo-1,2-dihydro-quinoline-3-carboxylic acid dimethylamide], the inhibition at 10 µM was not below 50%.
With `O=c1cc(NC2CC3CCC(C2)N3Cc2ccc3c(c2)OCO3)c2cc(Cl)ccc2n1CC(F)(F)F` (stereo not drawn) [Compound V-57] the figure was not below 50%.
With `O=c1cc(NC2CCN(Cc3ccc4c(c3)OCO4)CC2)c2cc(C(F)(F)F)ccc2n1CC(F)(F)F` [Compound V-58, 4-(1-Benzo[1,3]dioxol-5-ylmethyl-piperidin-4-ylamino)-1-(2,2,2-trifluoro-ethyl)-6-trifluoromethyl-1H-quinoline-2-one] the figure was not below 50%; with `Cn1c(=O)c(C(=O)N2CCCC2)c(NC2CCN(Cc3ccc4c(c3)OCO4)CC2)c2cc(Cl)ccc21` [Compound V-59, 4-(1-Benzo[1,3]dioxol-5-ylmethyl-piperidin-4-ylamino)-6-chloro-1-methyl-3-(pyrrolidine-1-carbonyl)-1H-quinolin-2-one], not below 50%.
For the compound `COc1ccc2c(c1)c(NC1CCN(Cc3ccc4c(c3)OCO4)CC1)c(C(=O)N(C)C)c(=O)n2C` [Compound V-60, 4-(1-Benzo[1,3]dioxol-5-ylmethyl-piperidin-4-ylamino)-6-methoxy-1-methyl-2-oxo-1,2-dihydro-quinoline-3-carboxylic acid dimethylamide], the inhibition at 10 µM was not below 50%.
`CCn1c(=O)cc(NC2CCN(C/C=C/c3ccccc3)CC2)c2cc(Cl)ccc21` [Compound V-63, 6-Chloro-1-ethyl-4-[1-(3-phenyl-allyl)-piperidin-4-ylamino]-1H-quinolin-2-one]: the inhibition at 10 µM was not below 50%.
For the compound `COc1ccc2oc(=O)cc(NC3CCN(Cc4ccc5c(c4)OCO5)CC3)c2c1` [II-1, 4-(1-Benzo[1,3]dioxol-5-ylmethyl-piperidin-4-ylamino)-6-methoxy-chromen-2-one], the inhibition at 10 µM is not below 50%.
With `O=c1cc(NC2CCN(Cc3ccc4ccccc4c3)CC2)c2cc(Cl)ccc2o1` [II-2, 6—Chloro-4-(1-naphthalen-2-ylmethyl-piperidin-4-ylamino)-chromen-2-one] the figure was not below 50%; with `Cc1ccc2oc(=O)cc(NC3CCN(Cc4ccc5c(c4)OCO5)CC3)c2c1` [II-3, 4-(1-Benzo[1,3]dioxol-5-ylmethyl-piperidin-4-ylamino)-6-methyl-chromen-2-one], not below 50%.
For `O=c1cc(NC2CCN(Cc3ccc4c(c3)OCO4)CC2)c2cc(Cl)ccc2o1` [II-4, 4-(1-Benzo[1,3]dioxol-5ylmethyl-piperidin-4-ylamino)-6-chloro-chromen-2-one] the value was not below 50%; for `O=c1cc(NC2CCN(Cc3cccc4ccccc34)CC2)c2cc(Cl)ccc2o1` [II-5, 6-Chloro-4-(1-naphthalen-1-ylmethyl-piperidin-4-ylamino)-chromen-2-one], not below 50%.
As for `O=c1cc(NC2CCN(Cc3csc4ccccc34)CC2)c2cc(Cl)ccc2o1` [II-6, 4-(1-Benzo[b]thiophen-3-ylmethyl-piperidin-4-ylamino)-6-chloro-chromen-2-one], the inhibition at 10 µM is not below 50%.
With `O=c1cc(NC2CCN(Cc3cc4ccccc4o3)CC2)c2cc(Cl)ccc2o1` [II-18, 4-(1-Benzofuran-2-ylmethyl-piperidin-4-ylamino)-6-chloro-chromen-2-one] the figure was not below 50%.
For the compound `COc1ccc2oc(=O)cc(NC3CCN(Cc4ccc5ccccc5c4)CC3)c2c1` [II-19, 6-Methoxy-4-(1-naphthalen-2-ylmethyl-piperidin-4-ylamino)-chromen-2-one trifluoroacetate], the inhibition at 10 µM was not below 50%.
`COc1ccc2oc(=O)cc(NC3CCN(Cc4ccc(C)cc4C)CC3)c2c1` [II-25, 4-[1-(2,4-Dimethyl-benzyl)-piperidin-4-ylamino]-6-methoxy-chromen-2-one trifluoroacetate]: the inhibition at 10 µM was not below 50%.
For `COc1ccc2oc(=O)c(F)c(NC3CCN(Cc4ccc5c(c4)OCO5)CC3)c2c1` [II-26, 4-(1-Benzo{1,3}dioxol-5-ylmethyl-piperidin-4-ylamino)-3-fluoro-6-methoxychromene-2-one], the inhibition at 10 µM is not below 50%.
For the compound `COc1ccc2oc(=O)cc(NC3CCN(Cc4ccc5ccc(C)cc5c4)CC3)c2c1` [II-27, 6-Methoxy-4-[1-(7-methyl-naphthalen-2-ylmethyl)-piperidin-4-ylamino]-chromen-2-one trifluoroacetate], the inhibition at 10 µM was not below 50%.
Regarding `C[C@H](c1ccc2c(c1)OCO2)N1CCC(Nc2cc(=O)oc3ccc(Cl)cc23)CC1` [II-28, 4-[1-(1-Benzo[1,3]dioxol-5-yl-ethyl)-piperidin-4-ylamino]-6-chloro-chromen-2-one], the inhibition at 10 µM is not below 50%.
With `COc1ccc2oc(=O)cc(NC3CCN(Cc4ccc(C)c(C)c4)CC3)c2c1` [II-29, 4-[1-(3,4-Dimethyl-benzyl)-piperidin-4-ylamino]-6-methoxy-chromen-2-one trifluoroacetate] the figure was not below 50%.
As for `O=c1cc(NC2CCN(Cc3ccc4cc[nH]c4c3)CC2)c2cc(Cl)ccc2o1` [II-31, 6-Chloro-4-[1-(1H-indol-6-ylmethyl)-piperidin-4-ylamino]-chromen-2-one], the inhibition at 10 µM was not below 50%.
With `O=c1cc(NC2CCN(Cc3ccc4ccccc4c3)CC2)c2cc(OC(F)F)ccc2o1` [II-32, 6-Difluoromethoxy-4-(1-naphthalen-2-ylmethyl-piperidin-4-ylamino)-chromen-2-one] the figure was not below 50%.
As for `CCn1ccc2cc(CN3CCC(Nc4cc(=O)oc5ccc(OC)cc45)CC3)ccc21` [II-33, 6-Methoxy-4-[N-ethylindole-5-ylmethyl-piperidin-4-ylamino]-chromen-2-one], the inhibition at 10 µM is not below 50%.
As to `COc1ccc2oc(=O)cc(NC3CCN(Cc4ccc(C)cc4)CC3)c2c1` [II-34, 6-Methoxy-4-[1-(4-methyl-benzyl)-piperidin-4-ylamino]-chromen-2-one trifluoroacetate], the inhibition at 10 µM is not below 50%.
With `C=Cc1ccc2oc(=O)cc(NC3CCN(Cc4ccc5c(c4)OCO5)CC3)c2c1` [II-35, 4-(1-Benzo[1,3]dioxol-5-ylmethyl-piperidin-4-ylamino)-6-vinyl-chromen-2-one], the inhibition at 10 µM was not below 50%.
With `O=c1cc(NC2CCN(Cc3ccc4ccoc4c3)CC2)c2cc(Cl)ccc2o1` [II-36, 4-(1-Benzofuran-6-ylmethyl-piperidin-4-ylamino)-6-chloro-chromen-2-one], the inhibition at 10 µM was not below 50%.
